Measurements reported in BindingDB's records for doi:10.1016/j.bmcl.2013.06.055 (Takeda California, 2013).

Assays:
[1] = Inhibition of PARP1 in human Jurkat cells assessed as reduction of cell viability after 96 hrs by MTS assay
[2] = Inhibition of PARP1 in human Jurkat cells assessed as reduction of cell viability after 96 hrs by MTS assay in presence of 100 uM of temozolomide

Row | SMILES | EC50 [1] [µM] | EC50 [2] [µM]
1 | CCOc1cc(CN2CCN(c3ccc(C(=O)NC4CC4)cc3C)CC2)cc2c1OC(C)C(=O)N2 (configuration not stated) | 100 | 0.02
2 | CCNC(=O)c1ccc(N2CCN(Cc3cc4c(c(OCC)c3)OC(C)C(=O)N4)CC2)c(C)c1 (configuration not stated) | 100 | 0.02
3 | CCOc1cc(CN2CCN(c3ccc(C(=O)NC)cc3C)CC2)cc2c1OC(C)C(=O)N2 (configuration not stated) | 26 | 0.02
4 | COc1cc(CN2CCN(c3ccc(C(=O)NC4CC4)cc3C)CC2)cc2c1OC(C)C(=O)N2 (configuration not stated) | 77 | 0.02
5 | CCNC(=O)c1ccc(N2CCN(Cc3cc4c(c(OC)c3)OC(C)C(=O)N4)CC2)c(C)c1 (configuration not stated) | 44 | 0.01
6 | CNC(=O)c1ccc(N2CCN(Cc3cc4c(c(OC)c3)OC(C)C(=O)N4)CC2)c(C)c1 (configuration not stated) | 100 | 0.06
7 | Cc1cc(C(=O)NC2CC2)ccc1N1CCN(Cc2cc(C)c3c(c2)NC(=O)C(C)O3)CC1 (configuration not stated) | 100 | 18
8 | CCNC(=O)c1ccc(N2CCN(Cc3cc(C)c4c(c3)NC(=O)C(C)O4)CC2)c(C)c1 (configuration not stated) | 55 | 9
9 | CNC(=O)c1ccc(N2CCN(Cc3cc(C)c4c(c3)NC(=O)C(C)O4)CC2)c(C)c1 (configuration not stated) | 78 | 9
10 | CCNC(=O)c1ccc(N2CCN(Cc3cc(C)c4c(c3)NC(=O)C(C)O4)CC2)cc1 (configuration not stated) | 94 | 9
11 | CNC(=O)c1ccc(N2CCN(Cc3cc(C)c4c(c3)NC(=O)C(C)O4)CC2)cc1 (configuration not stated) | 75 | 11
12 | CCNC(=O)c1ccc(N2CCN(Cc3ccc4c(c3)NC(=O)C(C)O4)CC2)c(Cl)c1 (configuration not stated) | 100 | 4
13 | CCNC(=O)c1ccc(N2CCN(Cc3ccc4c(c3)NC(=O)C(C)O4)CC2)cc1 (configuration not stated) | 42 | 15
14 | CNC(=O)c1ccc(N2CCN(Cc3ccc4c(c3)NC(=O)C(C)O4)CC2)cc1 (configuration not stated) | 14 | 15
15 | Cc1cc(CN2CCN(c3ccc(C(=O)NC4CC4)cc3Cl)CC2)cc2c1OC(C)C(=O)N2 (configuration not stated) | 43 | 0.01
16 | CCNC(=O)c1ccc(N2CCN(Cc3cc(C)c4c(c3)NC(=O)C(C)O4)CC2)c(Cl)c1 (configuration not stated) | 47 | 14
17 | CNC(=O)c1ccc(N2CCN(Cc3cc(C)c4c(c3)NC(=O)C(C)O4)CC2)c(Cl)c1 (configuration not stated) | 45 | 14
18 | COc1cc(CN2CCN(c3ccc(C(=O)NC4CC4)cc3)CC2)cc2c1OC(C)C(=O)N2 (configuration not stated) | 162 | 16
19 | CCNC(=O)c1ccc(N2CCN(Cc3cc4c(c(OC)c3)OC(C)C(=O)N4)CC2)cc1 (configuration not stated) | 151 | 16
20 | CNC(=O)c1ccc(N2CCN(Cc3cc4c(c(OC)c3)OC(C)C(=O)N4)CC2)cc1 (configuration not stated) | 251 | 27
21 | Cc1cc(CN2CCN(c3ccc(C(=O)NC4CC4)cc3)CC2)cc2c1OC(C)C(=O)N2 (configuration not stated) | 100 | 5
